Measured values reported in ChEMBL document CHEMBL3885861, “Open TG-GATES”.

Organism: Rattus norvegicus
Assay: Open TG-GATES - Regimen: Daily Repeat
Format: toxicity, organism-based, Sprague-Dawley
Parameters: regimen Daily Repeat, gender Male, age 6 weeks
Details: in vivo, iv, route intravenous injection; for KIDNEY_L / KIDNEY_R / KIDNEY_TOTAL: tissue Kidney; for LIVER: tissue Liver
[1] = 0 mg/kg, 72 h, dose level Control, time 3 day
[2] = 0 mg/kg, 72 h, tissue Blood, dose level Control, time 3 day
[3] = 0 mg/kg, 72 h, tissue Plasma, dose level Control, time 3 day
[4] = 0 mg/kg, […], dose level Control, time 7 day
[5] = 0 mg/kg, […], dose level Control, time 14 day
[6] = 0 mg/kg, […], dose level Control, time 28 day
[7] = 0 mg/kg, […], tissue Blood, dose level Control, time 7 day
[8] = 0 mg/kg, […], tissue Blood, dose level Control, time 14 day
[9] = 0 mg/kg, […], tissue Blood, dose level Control, time 28 day
[10] = 0 mg/kg, […], tissue Plasma, dose level Control, time 7 day
[11] = 0 mg/kg, […], tissue Plasma, dose level Control, time 14 day
[12] = 0 mg/kg, […], tissue Plasma, dose level Control, time 28 day
[13] = 1 mg/kg, 72 h, tissue Blood, dose level High, time 3 day
[14] = 1 mg/kg, 72 h, dose level High, time 3 day
[15] = 1 mg/kg, 72 h, tissue Plasma, dose level High, time 3 day
[16] = 1 mg/kg, […], dose level High, time 7 day
[17] = 1 mg/kg, […], dose level High, time 14 day
[18] = 1 mg/kg, […], dose level High, time 28 day
[19] = 1 mg/kg, […], tissue Blood, dose level High, time 7 day
[20] = 1 mg/kg, […], tissue Blood, dose level High, time 14 day
[21] = 1 mg/kg, […], tissue Blood, dose level High, time 28 day
[22] = 1 mg/kg, […], tissue Plasma, dose level High, time 7 day
[23] = 1 mg/kg, […], tissue Plasma, dose level High, time 14 day
[24] = 1 mg/kg, […], tissue Plasma, dose level High, time 28 day

## CISPLATIN
[1]
  TERMINAL_BW: 225.2 g
  KIDNEY_L: 1 g
  KIDNEY_R: 1 g
  KIDNEY_TOTAL: 1.9 g
[2]
  APTT: 23.7 s
  Bas: 0%
  Eos: 1%
  Fbg: 289.6 mg/dL
  Hb: 12.9 g/dL
  Ht: 39.8%
  Lym: 80.8%
  MCV: 63 fL
  Mono: 2.6%
  Plat: 132.8 x10_4/uL
  RBC: 631.8 x10_4/ul
  Ret: 5.8%
  WBC: 106.8 x10_2/uL
[3]
  ALP: 1659.4 IU/L
  ALT: 40.4 IU/L
  BUN: 16.2 mg/dL
  CRE: 0.2 mg/dL
  DBIL: 0 mg/dL
  GLC: 196.6 mg/dL
  IP: 6.7 mg/dL
  K: 4.2 meq/L
  LDH: 219.6 IU/L
  PL: 136 mg/dL
  RALB: 2.9 g/dL
  TBIL: 0.004 mg/dL
  TC: 69.4 mg/dL
  TG: 113.4 mg/dL
  TP: 5.4 g/dL
  gamma-GTP: 1.6 IU/L
[4]
  TERMINAL_BW: 261.4 g
  KIDNEY_L: 1.1 g
  KIDNEY_R: 1.1 g
  KIDNEY_TOTAL: 2.2 g
  LIVER: 12.3 g
[5]
  TERMINAL_BW: 291.7 g
  KIDNEY_L: 1.2 g
  KIDNEY_R: 1.2 g
  KIDNEY_TOTAL: 2.3 g
[6]
  TERMINAL_BW: 381.4 g
  KIDNEY_L: 1.3 g
  KIDNEY_R: 1.3 g
  KIDNEY_TOTAL: 2.7 g
  LIVER: 15.5 g
[7]
  APTT: 24.4 s
  Bas: 0%
  Eos: 1%
  Fbg: 309.2 mg/dL
  Ht: 40.3%
  Lym: 80%
  MCHC: 32.7%
  MCV: 63.8 fL
  Mono: 2.4%
  PT: 16.1 s
  Plat: 128.5 x10_4/uL
  RBC: 632.6 x10_4/ul
  Ret: 5.5%
  WBC: 155.9 x10_2/uL
[8]
  APTT: 23.9 s
  Bas: 0%
  Eos: 0.8%
  Fbg: 345.4 mg/dL
  Ht: 41.9%
  Lym: 80.8%
  MCHC: 33%
  MCV: 60.9 fL
  Mono: 2.8%
  PT: 15.9 s
  Plat: 117.5 x10_4/uL
  RBC: 688.8 x10_4/ul
  Ret: 3.8%
  WBC: 116.1 x10_2/uL
[9]
  APTT: 24.5 s
  Bas: 0%
  Eos: 1.2%
  Fbg: 311.4 mg/dL
  Hb: 14.6 g/dL
  Ht: 42.7%
  Lym: 81.4%
  MCHC: 34.1%
  MCV: 56.4 fL
  Mono: 3%
  PT: 16 s
  Plat: 104.7 x10_4/uL
  RBC: 757.6 x10_4/ul
  Ret: 2.2%
  WBC: 114.2 x10_2/uL
[10]
  ALP: 1680.4 IU/L
  ALT: 40.2 IU/L
  BUN: 17.6 mg/dL
  CRE: 0.2 mg/dL
  DBIL: 0 mg/dL
  IP: 7.2 mg/dL
  K: 4.3 meq/L
  LDH: 185.6 IU/L
  PL: 135.8 mg/dL
  RALB: 2.9 g/dL
  TBIL: 0.002 mg/dL
  TC: 69.2 mg/dL
  TG: 124.6 mg/dL
  TP: 5.4 g/dL
  gamma-GTP: 2.2 IU/L
[11]
  ALP: 1400.6 IU/L
  ALT: 41.2 IU/L
  AST: 81.4 IU/L
  BUN: 19 mg/dL
  CRE: 0.2 mg/dL
  DBIL: 0 mg/dL
  GLC: 182.2 mg/dL
  IP: 7.2 mg/dL
  K: 4.3 meq/L
  LDH: 164.4 IU/L
  PL: 146.8 mg/dL
  RALB: 3.1 g/dL
  TBIL: 0.002 mg/dL
  TC: 70.4 mg/dL
  TG: 117.6 mg/dL
  TP: 5.8 g/dL
  gamma-GTP: 1.8 IU/L
[12]
  ALP: 1048.2 IU/L
  ALT: 37.8 IU/L
  AST: 65.2 IU/L
  BUN: 19.2 mg/dL
  CRE: 0.2 mg/dL
  DBIL: 0 mg/dL
  GLC: 196.6 mg/dL
  IP: 6.4 mg/dL
  K: 4.2 meq/L
  LDH: 130.2 IU/L
  RALB: 3.1 g/dL
  TBIL: 0.004 mg/dL
  TC: 74.2 mg/dL
  TG: 141.8 mg/dL
  TP: 6 g/dL
  gamma-GTP: 2.8 IU/L
[13]
  APTT: 23.7 s
  Bas: 0%
  Eos: 1%
  Fbg: 288.4 mg/dL
  Ht: 40.9%
  Lym: 87%
  MCHC: 33%
  MCV: 61.4 fL
  Mono: 2.2%
  Neu: 9%
  PT: 15.7 s
  Plat: 137 x10_4/uL
  RBC: 667 x10_4/ul
  Ret: 2.5%
  WBC: 69.2 x10_2/uL
[14]
  KIDNEY_L: 0.9 g
  KIDNEY_R: 1 g
  KIDNEY_TOTAL: 1.9 g
  LIVER: 8.7 g
[15]
  ALP: 1528.2 IU/L
  AST: 75.8 IU/L
  CRE: 0.2 mg/dL
  Ca: 11 mg/dL
  DBIL: 0.002 mg/dL
  GLC: 180.8 mg/dL
  IP: 7.3 mg/dL
  K: 4.3 meq/L
  LDH: 270.4 IU/L
  PL: 132.6 mg/dL
  RALB: 3.1 g/dL
  TBIL: 0.026 mg/dL
  TG: 54.8 mg/dL
  TP: 5.6 g/dL
  gamma-GTP: 1.4 IU/L
[16]
  TERMINAL_BW: 219.4 g
  KIDNEY_L: 1 g
  KIDNEY_R: 1 g
  KIDNEY_TOTAL: 2 g
  LIVER: 10 g
[17]
  TERMINAL_BW: 226 g
  KIDNEY_L: 1.3 g
  KIDNEY_R: 1.3 g
  KIDNEY_TOTAL: 2.6 g
  LIVER: 8.8 g
[18]
  TERMINAL_BW: 172 g
  KIDNEY_L: 2.8 g
  KIDNEY_R: 2.8 g
  KIDNEY_TOTAL: 5.6 g
  LIVER: 6.8 g
[19]
  APTT: 27.5 s
  Bas: 0%
  Eos: 0.8%
  Fbg: 299.8 mg/dL
  Hb: 14.3 g/dL
  Ht: 42.4%
  Lym: 82.8%
  MCHC: 33.6%
  MCV: 59.8 fL
  Mono: 3.6%
  Neu: 11.4%
  PT: 16 s
  Plat: 136.4 x10_4/uL
  RBC: 708.8 x10_4/ul
  Ret: 1%
  WBC: 54.2 x10_2/uL
[20]
  APTT: 26.8 s
  Bas: 0%
  Eos: 0.4%
  Fbg: 276.4 mg/dL
  Hb: 14.9 g/dL
  Ht: 43.4%
  Lym: 80.8%
  MCHC: 34.3%
  MCV: 58.8 fL
  Mono: 4%
  Neu: 13.4%
  PT: 15.3 s
  Plat: 68.4 x10_4/uL
  RBC: 739 x10_4/ul
  Ret: 0.4%
  WBC: 50.8 x10_2/uL
[21]
  APTT: 17.9 s
  Bas: 0%
  Eos: 0%
  Fbg: 270 mg/dL
  Hb: 12.1 g/dL
  Ht: 33%
  Lym: 77%
  MCH: 18.5 pg
  MCHC: 36.7%
  MCV: 50.5 fL
  Mono: 3%
  Neu: 20%
  PT: 16.9 s
  Plat: 3.1 x10_4/uL
  RBC: 653 x10_4/ul
  Ret: 0.1%
  WBC: 32.4 x10_2/uL
[22]
  ALP: 1309.4 IU/L
  ALT: 31.2 IU/L
  AST: 79 IU/L
  BUN: 18.4 mg/dL
  CRE: 0.2 mg/dL
  DBIL: 0.002 mg/dL
  GLC: 170.8 mg/dL
  IP: 5.9 mg/dL
  K: 4.1 meq/L
  LDH: 247.4 IU/L
  PL: 118.8 mg/dL
  RALB: 3.2 g/dL
  TBIL: 0.02 mg/dL
  TC: 63.4 mg/dL
  TG: 64.2 mg/dL
  TP: 5.8 g/dL
  gamma-GTP: 1.6 IU/L
[23]
  ALP: 720.4 IU/L
  ALT: 37.6 IU/L
  AST: 102.8 IU/L
  BUN: 42.2 mg/dL
  CRE: 0.5 mg/dL
  DBIL: 0.002 mg/dL
  GLC: 165.8 mg/dL
  IP: 5.5 mg/dL
  K: 4.2 meq/L
  LDH: 248.4 IU/L
  PL: 134.8 mg/dL
  RALB: 3.1 g/dL
  TBIL: 0.006 mg/dL
  TC: 86 mg/dL
  TG: 43 mg/dL
  TP: 5.8 g/dL
  gamma-GTP: 3.8 IU/L
[24]
  ALP: 311 IU/L
  ALT: 47 IU/L
  AST: 125 IU/L
  BUN: 332 mg/dL
  CRE: 3.6 mg/dL
  Ca: 9.1 mg/dL
  Cl: 93 meq/L
  DBIL: 0.01 mg/dL
  GLC: 210 mg/dL
  IP: 11.7 mg/dL
  K: 5.4 meq/L
  LDH: 2660 IU/L
  Na: 129 meq/L
  PL: 140 mg/dL
  RALB: 2.3 g/dL
  TBIL: 0 mg/dL
  TC: 77 mg/dL
  TG: 91 mg/dL
  TP: 4.5 g/dL
  gamma-GTP: 2 IU/L
